The EC50 is the concentration at which the effect is half-maximal. By IC50 is commonly meant the point on the concentration scale where inhibition reaches its midpoint.

For 10 compounds, EC50 and IC50 results are on record in ChEMBL document CHEMBL1128009, “Stereoselectivity of the positive inotropic effects of newer diazinone-cardiotonics” (Bioorg Med Chem Lett, 1994).

Assay [1] is described as follows: Calcium sensitizing activity. Format: functional.
The target in another assay is Phosphodiesterase 3 (Homo sapiens, UniProt Q14432+Q13370). Description: Inhibition of phosphodiesterase 3. Format: protein assay.
The nature of assay [2]: Calcium sensitizing activity (Active). Format: functional.
The nature of assay [3]: Calcium sensitizing activity (No Effect). Format: functional.

As to `COc1ccc(C(=O)N2CCCc3cc(C4=NNC(=O)SC4C)ccc32)cc1OC` (single isomer, unassigned; (+)), in assay [1], the EC50 was found to be 1.7 µM.
For `CC1CC(=O)NN=C1c1ccc2[nH]c(-c3cc[nH]n3)nc2c1` (single isomer, unassigned; (+)) [MERIBENDAN], in assay [1], the EC50 came out at 470 µM. At Phosphodiesterase 3, this compound had an IC50 of 1.6 µM.
`COc1ccc(-c2nc3cc(C4=NNC(=O)CC4C)ccc3[nH]2)cc1` (single isomer, unassigned; (+)) [PIMOBENDAN]: the EC50 in assay [1] came to 152 µM.
The same measure, in the same setting: the result for `COc1ccc(C(=O)N2CCCc3cc(C4=NNC(=O)SC4C)ccc32)cc1OC` (single isomer, unassigned; (-)) reads > 100 µM.
`CC1CC(=O)NN=C1c1ccc2[nH]c(-c3cc[nH]n3)nc2c1` (single isomer, unassigned; (-)) [MERIBENDAN]: the EC50 in assay [1] stood at 190 µM. This compound registered an IC50 at Phosphodiesterase 3 of 0.04 µM.
Take `COc1ccc(-c2nc3cc(C4=NNC(=O)CC4C)ccc3[nH]2)cc1` (stereo in doubt) [PIMOBENDAN]: in assay [1], the EC50 came out at 100 µM.
At Phosphodiesterase 3, `CC1CC(=O)NN=C1c1cc2ccc(OCCN3CCCCC3)cc2s1` (stereo in doubt; (+)) had an IC50 of 14.8 µM. For the same compound, the EC50 result in assay [2] is listed as “Active”.
Consider `CC1CC(=O)NN=C1c1cc2ccc(OCCN3CCCCC3)cc2s1` (stereo in doubt; (-)), for which, in assay [3], the EC50 result is recorded as “Not Active”. For the same compound, the IC50 against Phosphodiesterase 3 was determined as 0.08 µM.
Consider `C[C@@H]1CC(=O)NN=C1c1ccc(NN=C(C#N)C#N)cc1` [LEVOSIMENDAN], for which the EC50 in assay [1] is > 100 µM. The IC50 on Phosphodiesterase 3 stood at 0.008 µM.
Regarding `CC1CC(=O)NN=C1c1ccc(NN=C(C#N)C#N)cc1` (stereo unspecified) [SIMENDAN], the EC50 in assay [1] was > 100 µM. Further, the IC50 against Phosphodiesterase 3 turned out to be 1.5 µM.
